Common to all, as to experiment: Preemergent control of plant species
The subject of test [1] is jimsonweed. It is filed as in vivo, Datura stramonium. The conditions noted are these: Datura stramonium, pre-emergence, 336 h; 0.25 lb/acre; read-out: percent preemergent control. An outline of the steps:
(§1)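 Seeds sown in agricultural soil beds in a greenhouse received aqueous emulsions of test compositions applied uniformly over the bed surface at the listed rates; water-treated beds served as control. After two weeks under greenhouse growth conditions, control was scored as growth reduction versus untreated plants of the same species.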

Test [2] concerns rape. It is filed as in vivo, Brassica napus. Conditions: Brassica napus, pre-emergence, 336 h; 0.25 lb/acre; read-out: percent preemergent control. The method, boiled down:
as §1

Test [3] concerns wild oats. The format is in vivo. The conditions noted are these: Avena fatua, pre-emergence, 336 h; 0.25 lb/acre; read-out: percent preemergent control. On the procedure: The seeds of various species of plants were planted in beds of good agricultural soil in a greenhouse. A number of compositions of the present invention, generally in the nature of an aqueous emulsion, were applied at rates listed in the table so as to deposit a predetermined amount of active ingredients uniformly throughout the surface of the bed. Another seed bed was treated only with water to serve as a control. After treatment the seed beds were maintained for two weeks under greenhouse conditions conducive for good plant growth and watered as necessary. Control refers to the reduction in growth compared to the observed results of the same untreated species.

Test [4] concerns velvetleaf. It is filed as in vivo, Abutilon theophrasti. The conditions noted are these: Abutilon theophrasti, pre-emergence, 336 h; 0.25 lb/acre; read-out: percent preemergent control. The method, boiled down:
as §1

For test [5], the system named is johnson grass. It is filed as in vivo, Sorghum halepense. The conditions noted are these: Sorghum halepense, pre-emergence, 336 h; 0.25 lb/acre; read-out: percent preemergent control. The method, boiled down:
as §1

Test [6] concerns rice. It is filed as in vivo, Oryza sativa. Conditions: Oryza sativa, pre-emergence, 336 h; 0.25 lb/acre; read-out: percent preemergent control. The method, boiled down: as §1
For test [7], the system named is soybean. It is filed as in vivo, Glycine max. Conditions: Glycine max, pre-emergence, 336 h; 0.25 lb/acre; read-out: percent preemergent control. An outline of the steps:
as §1

Test [8] deals with cotton. It is filed as in vivo, Gossypium spp. The conditions noted are these: Gossypium hirsutum, pre-emergence, 336 h; 0.25 lb/acre; read-out: percent preemergent control. The method, boiled down:
as §1

Test [9] concerns yellow nutsedge. It is filed as in vivo, Cyperus esculentus. The conditions noted are these: Cyperus, pre-emergence, 336 h; 0.25 lb/acre; read-out: percent preemergent control. The method, boiled down:
as §1

The test system of test [10] is barnyardgrass. It is filed as in vivo, Echinochloa crusgalli. Conditions: Echinochloa crus-galli, pre-emergence, 336 h; 0.25 lb/acre; read-out: percent preemergent control. The method, boiled down:
as §1

Test [11] concerns sorghum. The format is in vivo, Sorghum vulgare. Conditions: Sorghum, pre-emergence, 336 h; 0.25 lb/acre; read-out: percent preemergent control. An outline of the steps:
as §1

The subject of test [12] is yellow foxtail. It is filed as in vivo, Setaria lutescens. The conditions noted are these: Setaria, pre-emergence, 336 h; 0.25 lb/acre; read-out: percent preemergent control. An outline of the steps:
as §1

For test [13], the system named is annual morning glory. The format is in vivo, Ipomoea spp. Conditions: Ipomoea, pre-emergence, 336 h; 0.25 lb/acre; read-out: percent preemergent control. The method, boiled down:
as §1

Test [14] deals with wheat. The format is in vivo, Triticum aestivum. Conditions: Triticum aestivum, pre-emergence, 336 h; 0.25 lb/acre; read-out: percent preemergent control. The method, boiled down:
as §1

Test [15] concerns sugar beet. It is filed as in vivo, Beta saccharifera. The conditions noted are these: Beta vulgaris, pre-emergence, 336 h; 0.25 lb/acre; read-out: percent preemergent control. An outline of the steps: as §1
Test [16] concerns corn. It is filed as in vivo, Zea mays. Conditions: Zea mays, pre-emergence, 336 h; 0.25 lb/acre; read-out: percent preemergent control. The method, boiled down:
as §1

Among the data in patent US4740233A, “Substituted 1,2,4-triazolo[1,5-a]-pyrimidine-2-sulfonamides and compositions and methods of controlling undesired vegetation and suppressing the nitrification of ammonium nitrogen in soil” (The Dow Chemical Company, priority 1986, dated 1988) are pest or weed control and plant injury values, retold here.

On to `Cc1ccn2nc(S(=O)(=O)N(C(=O)CC(C)C)c3c(F)cccc3F)nc2n1` [Compound 284], for which the pest or weed control at 280.212 g/ha in test [1] amounted to 100%; in test [3], 90%; in test [4], 100%; in [5] it was 100%; in [9], 100%; in test [10], 100%. The pest or weed control at 280.212 g/ha in test [12] turned out to be 100%; in [13], 80%. Besides, the plant injury at 280.212 g/ha came to 100% in test [2]; 100% in test [6]; 20% in [7]; 100% in [8]; 100% in test [11]; 100% in test [14]. The figures for the plant injury at 280.212 g/ha in [15] and in test [16] were 100% and 85%, respectively.

Regarding `COC(=O)c1cccc(C)c1NS(=O)(=O)c1nc2nc(OC)c(C)cn2n1` [Compound 216], the pest or weed control at 280.212 g/ha in test [1] is 100%; in [3] it was 100%; in test [4], 100%; in test [5], 100%; in test [9] it was 70%; in [10], 75%. Also, the pest or weed control at 280.212 g/ha is 100% in test [12] and 90% in test [13]. The plant injury at 280.212 g/ha came out at 20% in test [2]; 90% in test [6]; 70% in [7]; 100% in [8]; 100% in test [11]; 100% in [14]. For the same molecule, the plant injury at 280.212 g/ha in [15] and in test [16] was 100% throughout.

For the molecule `Cc1cnc2nc(S(=O)(=O)Nc3c(Cl)ccc(C)c3Cl)nn2c1` [Compound 194], the pest or weed control at 280.212 g/ha in test [1] amounted to 95%; in test [3] it was 0%; in [4] it was 90%; in test [5] it was 0%; in [9] it was 95%; in [10] it was 0%. Besides, the figures for the pest or weed control at 280.212 g/ha in test [12] and in test [13] were 0% and 90%, respectively. Besides, the plant injury at 280.212 g/ha was determined as 100% in test [2]; 0% in [6]; 70% in test [7]; 90% in test [8]; 30% in test [11]; 0% in test [14]. Besides, the plant injury at 280.212 g/ha came out at 100% in [15] and 0% in [16].

Take `Cc1ccn2nc(S(=O)(=O)N(C(=O)C=Cc3ccccc3)c3c(F)cccc3F)nc2n1` [Compound 293]: the pest or weed control at 280.212 g/ha in test [1] is 100%; in test [3], 95%; in test [4] it was 100%; in test [5] it was 95%; in test [9], 100%; in test [10], 100%. Moreover, the pest or weed control at 280.212 g/ha in [12] is 100%; in test [13], 70%. For the same molecule, the plant injury at 280.212 g/ha in [2] stood at 100%; in test [6] it was 90%; in test [7], 10%; in test [8] it was 100%; in test [11], 100%; in test [14], 60%. In addition, the plant injury at 280.212 g/ha in test [15] worked out at 100%; in test [16], 60%.

With `Cc1ccnc2nc(S(=O)(=O)Nc3c(F)cccc3Cl)nn12` [Compound 181], the pest or weed control at 280.212 g/ha in [1] was 98%; in [3], 40%; in [4] it was 98%; in [5] it was 60%; in [9], 50%; in test [10] it was 20%. For the same molecule, the pest or weed control at 280.212 g/ha in test [12] and in test [13] was 80% in each case. Further, the plant injury at 280.212 g/ha amounted to 100% in test [2]; 30% in test [6]; 80% in test [7]; 98% in test [8]; 95% in test [11]; 0% in test [14]. The results for the plant injury at 280.212 g/ha in [15] and in test [16] were 98% and 0%, respectively.

As for `Cc1ccn2nc(S(=O)(=O)N(C(=O)c3ccccc3)c3c(Cl)cccc3Cl)nc2n1` [Compound 274, 5-methyl-N-benzoly-N-(2,6-dichlorophenyl)-1,2,4-triazolo[1,5-a]pyrimidine-2-sulfonamide], the pest or weed control at 280.212 g/ha in [1] is 90%; in [3], 0%; in test [4] it was 100%; in test [5], 70%; in test [9], 100%; in [10], 80%. For the same molecule, the values for the pest or weed control at 280.212 g/ha in test [12] and in [13] were 95% and 80%, respectively. Moreover, the plant injury at 280.212 g/ha turned out to be 100% in [2]; 80% in test [6]; 0% in [7]; 95% in test [8]; 90% in test [11]; 0% in test [14]. The plant injury at 280.212 g/ha came out at 100% in test [15] and 60% in [16].

In the case of `CC=CC(=O)N(c1c(F)cccc1F)S(=O)(=O)c1nc2nc(C)ccn2n1` [Compound 288], the pest or weed control at 280.212 g/ha in test [1] is 100%; in test [3], 90%; in test [4] it was 100%; in [5] it was 100%; in test [9], 100%; in test [10] it was 100%. The pest or weed control at 280.212 g/ha in test [12] and in [13] was 100% in each case. Further, the plant injury at 280.212 g/ha in test [2] was 100%; in test [6] it was 100%; in test [7], 40%; in test [8], 100%; in test [11], 100%; in test [14], 60%. For the same molecule, the plant injury at 280.212 g/ha stood at 100% in test [15] and 80% in [16].

Consider `Cc1ccn2nc(S(=O)(=O)N(C(=O)CCCl)c3c(F)cccc3F)nc2n1` [Compound 282], for which the pest or weed control at 280.212 g/ha in test [1] was found to be 100%; in test [3] it was 100%; in test [4] it was 100%; in [5], 100%; in [9], 100%; in test [10] it was 70%. The pest or weed control at 280.212 g/ha in [12] worked out at 100%; in test [13] it was 80%. The plant injury at 280.212 g/ha in [2] was determined as 100%; in test [6] it was 100%; in test [7], 50%; in [8], 100%; in test [11] it was 100%; in [14], 70%. For the same molecule, the plant injury at 280.212 g/ha worked out at 100% in test [15] and 95% in test [16].
